Measurements: patent US8486986B2, “Microbiocides” (Syngenta Crop Protection LLC, priority 2007, dated 2013)

melting point: 126 to 130 °C
Compound: CC(Cc1c(-c2ccc(F)cc2)sc(Cl)c1Cl)NC(=O)c1cn(C)nc1C(F)(F)F (stereo not shown) [Compound 7.72, 1-methyl-3-trifluoromethyl-1H-pyrazole-4-carboxylic acid {2-[4,5-dichloro-2-(4-fluorophenyl)-thiophen 3-yl]1-methylethyl}amide]
